We go through six molecules from DBAASP.

Converted amounts (≈) assume the structure as drawn. Where only a bound is given, the exact number is not on record here.

Test systems include Escherichia coli 55B5; Escherichia coli UB1005; Pseudomonas aeruginosa; Salmonella typhimurium; Staphylococcus aureus; Escherichia coli; Lactococcus garvieae; Streptococcus iniae; Vibrio alginolyticus; Vibrio harveyi; Vibrio parahaemolyticus; Bacillus cereus C737.
Test in all cases: ≥ marks a high value that may be exact or a test limit, other limits are often not marked, values filed in µg/mL are converted to µM
Experiment [1] has as its system Enterobacter cloacae BCRC 10401.
In experiment [2] the test system is Escherichia coli BCRC 10675.
Experiment [3] has as its system Klebsiella aerogenes BCRC 10370.
The subject of experiment [4] is Klebsiella oxytoca BCRC 13985.
Experiment [5] has as its system Listeria monocytogenes BCRC 14845.
Experiment [6] concerns Pseudomonas aeruginosa BCRC 10944.
Experiment [7] concerns Staphylococcus aureus BCRC 10780.
Experiment [8] relates to Staphylococcus aureus BCRC 10781.
Experiment [9] deals with Staphylococcus xylosus BCRC 12930.
Experiment [10] relates to Streptococcus equinus BCRC 14729.
Experiment [11] concerns Vibrio alginolyticus BCRC 12829.
In experiment [12] the test system is Vibrio anguillarum serotype O1.
Experiment [13] concerns Vibrio parahaemolyticus BCRC 10806.
Experiment [14] relates to Yersinia enterocolitica BCRC 13999.
Experiment [15] relates to Pseudomonas aeruginosa PAO1.
The test system of experiment [16] is Pseudomonas aeruginosa PAK.
For experiment [17], the system named is Streptococcus gordonii Challis DL1.
The subject of experiment [18] is Streptococcus mitis ATCC 903.
For experiment [19], the system named is Streptococcus mutans UA159.
The test system of experiment [20] is Streptococcus sanguinis NY101.
Experiment [21] deals with Lacticaseibacillus casei ATCC 4646.
Experiment [22] has as its system Veillonella atypica PK1910.

One may read the MIC as the least concentration at which growth counts as inhibited. In the case of `CC[C@H](C)[C@H](NC(=O)[C@H](C)N)C(=O)N[C@@H](Cc1cnc[nH]1)C(=O)N[C@@H](CCCCN)C(=O)N[C@@H](CC(C)C)C(=O)N[C@@H](C)C(=O)N[C@@H](Cc1cnc[nH]1)C(=O)N[C@@H](CCCCN)C(=O)N[C@@H](CC(C)C)C(=O)N[C@@H](CC(C)C)C(=O)N[C@@H](CCCCN)C(=O)N[C@@H](CCCCN)C(=O)N[C@@H](CC(C)C)C(=O)N[C@@H](CC(C)C)C(=O)N[C@@H](CCCCN)C(=O)N[C@@H](C)C(=O)N[C@H](C(=O)N[C@@H](CCCCN)C(=O)N[C@@H](CCCCN)C(=O)N[C@@H](CC(C)C)C(=O)N[C@@H](C)C(=O)N[C@@H](CCCCN)C(=O)O)C(C)C` [AIHKLAHKLLKKLLKAVKKLAK], the MIC with Escherichia coli 55B5 stood at 2 µM (≈ 4.99 µg/mL); in the experiment on Escherichia coli UB1005, 2.5 µM (≈ 6.23 µg/mL); with Pseudomonas aeruginosa, 4.5 µM (≈ 11.2 µg/mL); against Salmonella typhimurium, 6 µM (≈ 15 µg/mL); against Staphylococcus aureus, 25 µM (≈ 62.3 µg/mL).
In the case of `CC[C@H](C)[C@H](NC(=O)[C@H](C)N)C(=O)N[C@@H](Cc1cnc[nH]1)C(=O)N[C@@H](CCCCN)C(=O)N[C@@H](CC(C)C)C(=O)N[C@@H](C)C(=O)N[C@@H](Cc1cnc[nH]1)C(=O)N[C@@H](CCCCN)C(=O)N[C@@H](CC(C)C)C(=O)N[C@H](C(=O)N[C@@H](CCCCN)C(=O)N[C@@H](CCCCN)C(=O)N[C@H](C(=O)N[C@@H](CC(C)C)C(=O)N[C@@H](CCCN=C(N)N)C(=O)N[C@@H](C)C(=O)N[C@H](C(=O)N[C@@H](CCCCN)C(=O)N[C@@H](CCCCN)C(=O)N[C@@H](CC(C)C)C(=O)N[C@@H](C)C(=O)N[C@@H](CC(N)=O)C(=O)O)C(C)C)[C@@H](C)O)[C@@H](C)O` [AIHKLAHKLTKKTLRAVKKLAN], the minimal inhibitory concentration (MIC) against Escherichia coli 55B5 turned out to be 10.5 µM (≈ 26.1 µg/mL); with Escherichia coli UB1005, 12.5 µM (≈ 31 µg/mL); in the experiment with Pseudomonas aeruginosa, 12.5 µM (≈ 31 µg/mL); with Salmonella typhimurium it was 10.5 µM (≈ 26.1 µg/mL).
As to `CC[C@H](C)[C@H](NC(=O)[C@H](Cc1ccccc1)NC(=O)[C@H](CCCCN)NC(=O)[C@H](CCCCN)NC(=O)[C@H](C)NC(=O)[C@@H](NC(=O)[C@@H](NC(=O)[C@H](C)NC(=O)[C@H](Cc1ccccc1)NC(=O)[C@H](CCCCN)NC(=O)[C@H](CCCCN)NC(=O)[C@H](C)NC(=O)[C@H](C)NC(=O)[C@H](CC(N)=O)NC(=O)[C@H](C)NC(=O)CN)[C@@H](C)O)[C@@H](C)CC)C(=O)N[C@@H](CC(N)=O)C(=O)N[C@@H](Cc1ccc(O)cc1)C(=O)N[C@@H](CC(C)C)C(=O)N[C@@H](Cc1c[nH]c2ccccc12)C(=O)O` [GANAAKKFATIAKKFINYLW], the MIC in [1] is 3.55 µM (≈ 8 µg/mL); in [2] it was 7.09 µM (≈ 16 µg/mL); against Escherichia coli, 14.2 µM (≈ 32 µg/mL); in [3], 3.55 µM (≈ 8 µg/mL); in experiment [4], 14.2 µM (≈ 32 µg/mL); in the experiment with Lactococcus garvieae it was not below 56.7 µM. Besides, the MIC was 3.55 µM (≈ 8 µg/mL) in [5]; 7.09 µM (≈ 16 µg/mL) in experiment [6]; 7.09 µM (≈ 16 µg/mL) in [7]; 7.09 µM (≈ 16 µg/mL) in experiment [8]; 3.55 µM (≈ 8 µg/mL) in [9]; not below 56.7 µM in [10]. Moreover, the MIC in the experiment with Streptococcus iniae is not below 56.7 µM; in experiment [11] it was 28.4 µM (≈ 64 µg/mL); against Vibrio alginolyticus, 3.55 µM (≈ 8 µg/mL); in experiment [12] it was 3.55 µM (≈ 8 µg/mL); against Vibrio harveyi, 3.55 µM (≈ 8 µg/mL); in experiment [13] it was 28.4 µM (≈ 64 µg/mL). For the same molecule, the MIC in the experiment with Vibrio parahaemolyticus was determined as 1.77 µM (≈ 4 µg/mL); in experiment [14], 28.4 µM (≈ 64 µg/mL).
On to `CC[C@H](C)[C@H](NC(=O)[C@H](C)NC(=O)CNC(=O)[C@@H](NC(=O)[C@@H](NC(=O)[C@H](CCCCN)NC(=O)[C@H](CCCCN)NC(=O)[C@@H](NC(=O)[C@@H](NC(=O)[C@H](CC(=O)O)NC(=O)[C@H](Cc1ccccc1)NC(=O)[C@H](CC(C)C)NC(=O)CN)[C@@H](C)CC)C(C)C)C(C)C)C(C)C)C(=O)NCC(=O)N[C@@H](CO)C(=O)N[C@@H](CC(C)C)C(=O)O` [GLFDIVKKVVGAIGSL], for which the values for the MIC (against Bacillus cereus C737; against Escherichia coli UB1005; in [15]) were not below 79.2 µM, not below 79.2 µM and more than 79.2 µM, respectively.
With `CC[C@H](C)[C@H](NC(=O)[C@H](Cc1ccccc1)NC(=O)CNC(=O)CNC(=O)[C@H](CO)NC(=O)[C@H](Cc1ccccc1)NC(=O)[C@H](CCC(N)=O)NC(=O)[C@H](CCCCN)NC(=O)[C@H](CC(C)C)NC(=O)[C@H](CC(C)C)NC(=O)[C@H](CCCCN)NC(=O)[C@H](CC(C)C)NC(=O)[C@H](CC(C)C)NC(=O)[C@H](CCC(N)=O)NC(=O)[C@H](CCCCN)NC(=O)[C@H](CC(C)C)NC(=O)[C@H](CC(C)C)NC(=O)[C@H](CCC(N)=O)NC(=O)[C@@H](N)CC(C)C)C(=O)N[C@@H](CCCCN)C(=O)N[C@@H](Cc1cnc[nH]1)C(=O)N[C@@H](Cc1ccccc1)C(=O)N[C@H](C(=O)N[C@@H](Cc1cnc[nH]1)C(=O)N[C@@H](CCCN=C(N)N)C(=O)N[C@@H](Cc1ccccc1)C(N)=O)[C@@H](C)CC` [LQLLKQLLKLLKQFSGGFIKHFIHRF], the minimal inhibitory concentration (MIC) in [16] was determined as 10.1 µM (≈ 32 µg/mL); against Staphylococcus aureus, 10.1 µM (≈ 32 µg/mL); in experiment [17] it was 5.07 µM (≈ 16 µg/mL); in [18] it was 10.1 µM (≈ 32 µg/mL); in [19] it was 2.54 µM (≈ 8 µg/mL); in experiment [20], 5.07 µM (≈ 16 µg/mL).
`CC(C)C[C@H](NC(=O)[C@H](CC(C)C)NC(=O)[C@H](Cc1cnc[nH]1)NC(=O)[C@H](Cc1cnc[nH]1)NC(=O)[C@H](CC(C)C)NC(=O)[C@H](CCCCN)NC(=O)[C@H](CCCCN)NC(=O)[C@H](CC(C)C)NC(=O)[C@H](CC(C)C)NC(=O)[C@H](CCCN=C(N)N)NC(=O)[C@H](CCCN=C(N)N)NC(=O)[C@H](Cc1c[nH]c2ccccc12)NC(=O)[C@@H](N)CCCN=C(N)N)C(=O)N[C@@H](Cc1cnc[nH]1)C(N)=O` [RWRRLLKKLHHLLH]: the MIC in experiment [21] was 8.39 µM (≈ 16 µg/mL); in experiment [16] it was 4.2 µM (≈ 8 µg/mL); against Staphylococcus aureus it was 8.39 µM (≈ 16 µg/mL); in experiment [17] it was 8.39 µM (≈ 16 µg/mL); in [18], 16.8 µM (≈ 32 µg/mL); in experiment [19], 4.2 µM (≈ 8 µg/mL). Further, the minimal inhibitory concentration (MIC) turned out to be 8.39 µM (≈ 16 µg/mL) in experiment [20] and 2.1 µM (≈ 4 µg/mL) in [22].
